Results published in PubChem BioAssay (NCI).
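GI50 marks 50% less growth. TGI: total growth inhibition.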

Key:
Test in all cases: inhibition of tumour cell growth, NCI panel, 384-well format
PC-3 prostate = test system: PC-3 prostate
SK-MEL-2 melanoma = test system: SK-MEL-2 melanoma
OVCAR-3 ovarian = test system: OVCAR-3 ovarian
LOX IMVI melanoma = test system: LOX IMVI melanoma
HL-60(TB) leukemia = test system: HL-60(TB) leukemia
CAKI-1 renal = test system: CAKI-1 renal
UACC-257 melanoma = test system: UACC-257 melanoma
OVCAR-8 ovarian = test system: OVCAR-8 ovarian
MALME-3M melanoma = test system: MALME-3M melanoma
MOLT-4 leukemia = test system: MOLT-4 leukemia
HCC-2998 colon = test system: HCC-2998 colon
UO-31 renal = test system: UO-31 renal
SK-MEL-28 melanoma = test system: SK-MEL-28 melanoma
BT-549 breast = test system: BT-549 breast
MDA-MB-231 breast = test system: MDA-MB-231 breast
SF-268 CNS = test system: SF-268 CNS
K-562 leukemia = test system: K-562 leukemia
SK-OV-3 ovarian = test system: SK-OV-3 ovarian
OVCAR-4 ovarian = test system: OVCAR-4 ovarian
A549 NSCLC = test system: A549 NSCLC
NCI-H226 lung = test system: NCI-H226 lung
TK-10 renal = test system: TK-10 renal
UACC-62 melanoma = test system: UACC-62 melanoma
ACHN renal = test system: ACHN renal
CCRF-CEM leukemia = test system: CCRF-CEM leukemia
MDA-MB-468 breast = test system: MDA-MB-468 breast
SK-MEL-5 melanoma = test system: SK-MEL-5 melanoma
U251 glioblastoma = test system: U251 glioblastoma
SF-295 CNS = test system: SF-295 CNS
HOP-62 NSCLC = test system: HOP-62 NSCLC
IGROV1 ovarian = test system: IGROV1 ovarian
COLO 205 colon = test system: COLO 205 colon
HOP-92 NSCLC = test system: HOP-92 NSCLC
RXF 393 renal = test system: RXF 393 renal
NCI-H460 NSCLC = test system: NCI-H460 NSCLC
MDA-MB-435 melanoma = test system: MDA-MB-435 melanoma
SR leukemia = test system: SR leukemia
M14 melanoma = test system: M14 melanoma
HT29 colon = test system: HT29 colon
DU-145 prostate = test system: DU-145 prostate
RPMI-8226 leukemia = test system: RPMI-8226 leukemia
SF-539 CNS = test system: SF-539 CNS
T-47D breast = test system: T-47D breast
NCI/ADR-RES ovarian = test system: NCI/ADR-RES ovarian
HCT-116 colon = test system: HCT-116 colon
HCT-15 colon = test system: HCT-15 colon
SW-620 colon = test system: SW-620 colon
NCI-H322M lung = test system: NCI-H322M lung
OVCAR-5 ovarian = test system: OVCAR-5 ovarian
A498 renal = test system: A498 renal
MCF7 breast = test system: MCF7 breast
NCI-H522 lung = test system: NCI-H522 lung
SNB-19 CNS = test system: SNB-19 CNS
KM12 colon = test system: KM12 colon
786-0 renal = test system: 786-0 renal
NCI-H23 lung = test system: NCI-H23 lung
SN12C renal = test system: SN12C renal

CCOc1cc(C(C)(C)C)ccc1C1=N[C@@](C)(c2ccc(Cl)cc2)[C@@](C)(c2ccc(Cl)cc2)N1C(=O)N1CCN(CCCS(C)(=O)=O)CC1
GI50 (PC-3 prostate): 2150 nM
TGI (PC-3 prostate): 4430 nM
GI50 (SK-MEL-2 melanoma): 2260 nM
TGI (SK-MEL-2 melanoma): 4190 nM
GI50 (OVCAR-3 ovarian): 2110 nM
TGI (OVCAR-3 ovarian): 3760 nM
GI50 (LOX IMVI melanoma): 892 nM
TGI (LOX IMVI melanoma): 2120 nM
GI50 (HL-60(TB) leukemia): 2560 nM
TGI (HL-60(TB) leukemia): 4040 nM
GI50 (CAKI-1 renal): 122 nM
TGI (CAKI-1 renal): 1470 nM
GI50 (UACC-257 melanoma): 1440 nM
TGI (UACC-257 melanoma): 3140 nM
GI50 (OVCAR-8 ovarian): 3560 nM
TGI (OVCAR-8 ovarian): 12600 nM
GI50 (MALME-3M melanoma): 753 nM
TGI (MALME-3M melanoma): 2620 nM
GI50 (MOLT-4 leukemia): 29.6 nM
TGI (MOLT-4 leukemia): 97.5 nM
GI50 (HCC-2998 colon): 1470 nM
TGI (HCC-2998 colon): 2960 nM
GI50 (UO-31 renal): 53.4 nM
TGI (UO-31 renal): 205 nM
GI50 (SK-MEL-28 melanoma): 3860 nM
TGI (SK-MEL-28 melanoma): 10900 nM
GI50 (BT-549 breast): 2350 nM
TGI (BT-549 breast): 5590 nM
GI50 (MDA-MB-231 breast): 2660 nM
TGI (MDA-MB-231 breast): 6530 nM
GI50 (SF-268 CNS): 2650 nM
TGI (SF-268 CNS): 7380 nM
GI50 (K-562 leukemia): 2940 nM
TGI (K-562 leukemia): 8630 nM
GI50 (SK-OV-3 ovarian): 2600 nM
TGI (SK-OV-3 ovarian): 7360 nM
GI50 (OVCAR-4 ovarian): 2530 nM
TGI (OVCAR-4 ovarian): 5890 nM
GI50 (A549 NSCLC): 405 nM
TGI (A549 NSCLC): 1630 nM
GI50 (NCI-H226 lung): 108 nM
TGI (NCI-H226 lung): 359 nM
GI50 (TK-10 renal): 2830 nM
TGI (TK-10 renal): 8930 nM
GI50 (UACC-62 melanoma): 67.8 nM
TGI (UACC-62 melanoma): 1590 nM
GI50 (ACHN renal): 205 nM
TGI (ACHN renal): 1210 nM
GI50 (CCRF-CEM leukemia): 2120 nM
TGI (CCRF-CEM leukemia): 3700 nM
GI50 (MDA-MB-468 breast): 2040 nM
TGI (MDA-MB-468 breast): 5160 nM
GI50 (SK-MEL-5 melanoma): 1390 nM
TGI (SK-MEL-5 melanoma): 2690 nM
GI50 (U251 glioblastoma): 3710 nM
TGI (U251 glioblastoma): 11900 nM
GI50 (SF-295 CNS): 1930 nM
TGI (SF-295 CNS): 3850 nM
GI50 (HOP-62 NSCLC): 2480 nM
TGI (HOP-62 NSCLC): 6590 nM
GI50 (IGROV1 ovarian): 1410 nM
TGI (IGROV1 ovarian): 3320 nM
GI50 (COLO 205 colon): 3540 nM
TGI (COLO 205 colon): 9600 nM
GI50 (HOP-92 NSCLC): 2240 nM
TGI (HOP-92 NSCLC): 4680 nM
GI50 (RXF 393 renal): 2230 nM
TGI (RXF 393 renal): 4550 nM
GI50 (NCI-H460 NSCLC): 224 nM
TGI (NCI-H460 NSCLC): 1300 nM
GI50 (MDA-MB-435 melanoma): 3940 nM
TGI (MDA-MB-435 melanoma): 11700 nM
GI50 (SR leukemia): 20 nM
TGI (SR leukemia): 56.9 nM
GI50 (M14 melanoma): 1070 nM
TGI (M14 melanoma): 3240 nM
GI50 (HT29 colon): 1870 nM
TGI (HT29 colon): 3290 nM
GI50 (DU-145 prostate): 3160 nM
TGI (DU-145 prostate): 10100 nM
GI50 (RPMI-8226 leukemia): 1820 nM
TGI (RPMI-8226 leukemia): 3220 nM
GI50 (SF-539 CNS): 2030 nM
TGI (SF-539 CNS): 4250 nM
GI50 (T-47D breast): 2440 nM
TGI (T-47D breast): 8590 nM
GI50 (NCI/ADR-RES ovarian): 2370 nM
TGI (NCI/ADR-RES ovarian): 6070 nM
GI50 (HCT-116 colon): 327 nM
TGI (HCT-116 colon): 1610 nM
GI50 (HCT-15 colon): 1900 nM
TGI (HCT-15 colon): 3490 nM
GI50 (SW-620 colon): 4240 nM
TGI (SW-620 colon): 13200 nM
GI50 (NCI-H322M lung): 2280 nM
TGI (NCI-H322M lung): 3960 nM
GI50 (OVCAR-5 ovarian): 3520 nM
TGI (OVCAR-5 ovarian): 10800 nM
GI50 (A498 renal): 185 nM
TGI (A498 renal): 1370 nM
GI50 (MCF7 breast): 411 nM
TGI (MCF7 breast): 1940 nM
GI50 (NCI-H522 lung): 3250 nM
TGI (NCI-H522 lung): 8970 nM
GI50 (SNB-19 CNS): 3180 nM
TGI (SNB-19 CNS): 11300 nM
GI50 (KM12 colon): 2230 nM
TGI (KM12 colon): 4770 nM
GI50 ([…]-0 renal): 2510 nM
TGI (786-0 renal): 7150 nM
GI50 (NCI-H23 lung): 5590 nM
TGI (NCI-H23 lung): 16400 nM
GI50 (SN12C renal): 2400 nM
TGI (SN12C renal): 5210 nM
